Reference: patent US5696276A, “Process for preparing 5,8-dihydroxynaphthoquinone derivatives, novel 5,8-dihydroxynaphthoquinone derivatives and their use as anticancer agent” (Kuhnil Pharmaceutical Co., Ltd., priority 1993, dated 1997)
In brackets after ≈: the same amount, converted by molar mass.

Experiments:
[1] = system: L1210 cells; test: Cytotoxic activity against L1210 cells; type: cell-based; details: Mus musculus; L1210 cells, 48 hours, 37° C.; read-out: ED50, cytotoxic activity against L1210
Protocol: To obtain L1210 cells in a logarithmic phase for cytotoxic activity test, in a 250 ml Erlenmeyer flask with a screw cap including Fisher medium warmed to 36° to 37° C. L1210 cells were adjusted to a concentration of 2-3×10^5 cells/ml and then cultured, before 24 hours from the beginning of experiment. Then, the culture solution thus obtained was suspended to prepare a L1210 cell suspension having a concentration of about 0.8-1.0×10^6 cells/ml. Test sample was dissoved in ethanol or dimethylsulfoxide in a certain concentration just before the experiment. 0.1 ml of the sample solution was diluted 10 times with 0.9 ml of a fresh medium. To each screw-capped test tube were added 100, 50, 25 μl, respectively, of the sample dilutions and then added 5 ml of the cell suspension (5×10^4 cells/ml) prepared above to use as the test group. To the test tubes for the control group (2√n: n=number of the samples), only 5 ml of the cell suspension was added. All test tubes were cultured for 48 hours in a CO2 incubator at 37° C. and then the number of cells was counted using a haemacytometer.
(§1) The ED50 value is defined as a concentration (μg/ml) of the sample which inhibits the growth of cancer cells by 50% of the control group and determined according to a method described in NIC's mannual (NIC=National Cancer Institue, U.S.A.). The growth rate Y(%) of cells in the presence of the test sample in each concentration was calculated according to the followign equation: […]
(§2) In the above equation, T means the average cell number per ml in the test group after incubation for 48 hours in the presence of the test samples in each concentration, C means the average cell number per ml in the control group after incubation for 48 hours, and Co means the average cell number per ml in the control group at the beginning of incubation. The Y(%) value at each concentration and log10 value of each concentration were obtained and the regression curve was constructed according to the following equation from those obtained values. In this case, when all the Y(%) value obtained at each concentration is greater than 55% or lower than 45%, the experiment was repeatedly conducted.
(§3) To construct the regression curve Y=A+BX the values A and B were obtained using the following equation. [formula]
(§4) In the above, the value N is the number of selected points which is greater than 2 and lower than, or identical with, the number of cencentration of the test sample, Xi is log(concentration) i, and Yi is the growth ratio at (concentration)i. The value of ED50 was obtained for those obtained slope and intercept.

[2] = system: K-562 cells; test: Cytotoxic activity against K-562 cells; type: cell-based; details: Homo sapiens; K562 cells, 48 hours, 37° C.; read-out: ED50, cytotoxic activity against K562
Protocol: As in the test for the cytotoxic activity against L1210 cells, the test samples were dissoved in ethanol or dimethylsulfoxide in a certain concentration. 0.1 ml of the sample solution was mixed with 0.9 ml of a fresh medium to prepare the dilutions. To each two test tubes having a screw cap were added 100, 50, 25 μl, respectively, of the sample dilutions by means of a micropipet. To each test tube for the test group and the control group (2√n: n=number of the samples) was added 5 ml of the dilutions of HL-60 cells and K-562 cells which were cultured and activated before 24 hours from the beginning of experiment and then diluted in a concentration of 1×10^5 cells/mi. All test tubes were cultured for 48 hours in a CO2 incubator at 37° C. and then the number of cells was counted using a haemacytometer.
as §1, §2, §3, §4

[3] = system: A549 cancer cells; test: Cytotoxic activity against A549 cancer cells (sulforhodamin B method); type: cell-based; details: Homo sapiens; A549 cells, SRB method, 48 hours; read-out: ED50, cytotoxic activity against A549
Protocol: The cytotoxic activity against A549 cancer cells was determined using a method for measuring sulforhodamin B (SRB), which was developed in the year 1989 by NIC for measuring anticancer activity of the drug in vitro. For the experiment, cells under subculturing were separated from the attached surface with trypsin-CDTA solution and then dispensed into a 24-well flat-bottom microplate (Falcon) so that the number of cells per well is 8×10^4 (A549). The microplate was incubated in a CO2 incubator for 24 hours to attach the dispensed cells to bottom. The medium was removed with aspirator. Then, 100 μl of the solution of the test compounds diluted in a log-dose of 6 kinds of concentration was added to each well containing cells, in a multiple of 3. The microplate was incubated for further 48 hours. In addition, the diluted solution of the test compounds above was filtered through a 0.22 μm filter, before addition to the cells, to keep the experiment under sterilized condition. The cells were incubated with the test compounds for 48 hours and then the medium was removed from each well. 100 μl of 10% trichloroacetic acid (TCA) was added to each well and then the plate was allowed to stand at 4° C. for one hour to fix the cells to the bottom of plate. After fixing the cells, the plate was washed 5 to 6 times with water to completely remove any remaining TCA solution and then dried at room temperature until water is no longer present. To the completely dried plate was added the dying solution of 0.4% SRB dissolved in 1% acetic acid in an amount of 250 μl per well to stain the cells for 30 minutes and then the plate was washed again 5 to 6 times with 1% acetic acid solution to remove the remaining SRB which is not bound to the cells. The stained cell plate was dried again at room temperature. Then, the dying solution was carefully dissolved in a certain amount of 10 mM Tris so that the O.D. value in the control group at 520 nm is 0.8-1.0 Å (optical density), and the optical density at 520nm was determined. The ED50 value was obtained from the determined optical density. To calculate the activity of the drug against cancer cells, the number of cells (Tz) at the beginning of the addition of drug, the number of cells (C) after incubation with the medium in the absence of drug for 48 hours and the number of cells (T) after incubation in the presence of drugs at each concentration for 48 hours were determined.
The anticancer activity of the test compounds was determined form the following equations. Specifically, in the […] the equation (T-Tz)/(C-Tz)×100 was used and in the case of Tz<T the equation (T-Tz)/Tz×100 was used. Then the IC50 value wich is the concentration of drug which inhibits the growth of cancer cells by 50% was calcualted from the above calculated values using a data regressive function of LOTUS programme and the cytotoxic activities of the test compounds were compared with each other.

[4] = system: S-180 sarcoma cells; test: Animal experiment using Sarcoma S-180 cells (survival of mouse); type: in vivo, male ICR mouse; details: ip, S-180 ICR mouse, comparative drug, 0.5 mg/kg/day (1.2 μmole)
Protocol: In this experiment, healthy male ICR mouse weighing 20 to 25 g were used as test animal and were fed with water and feed without any restriction in the chamber controlled at the temperature of 23° to 24° C. As the feed, the antibiotic-free feed for mouse was used.
S-180 cells which were incubated for 7 days within abdominal cavity of ICR mouse were separated together with ascites. To the separated cells was added sterilized cold physiological saline and the mixture was centrifuged with 400×g for 2 minutes to separate the cell precipitate. The separated cell precipitate was suspended again in sterilized cold physiological saline and then centrifuged to remove the supernatant. Only S-180 cells were taken, excluding any red bllod cells incorporated therein, washed three times with the same method as above, and then suspended to obtain the cell suspension in concentration of 10^7 cells/ml by counting the number of cells with a haemacytometer. Each 0.1 ml of this cell suspension was transplanted in an abdominal cavity.
After 24 hours from the transplantation, mouse were divided so that each group contains 8 to 9 mouse. The test sample was dissolved in a predetermined amount of dimethylsulfoxide to prepare the stock solution which was stored at 4° C. 30 μl of the stock solution was taken and then mixed with 1.5 ml of physiological saline. 0.1 ml of this mixture was intraperitoneally injected to the test animal. To the control group, 2% dimethylsulfoxide-physiological saline solution was injected. Meanwhile, doxorubicin which is used as the comparative drug was dissolved in 2% dimethylsulfoxide-physiological saline solution and then injected in an amount of 0.5 mg(titer)/kg. The schedule for injection comprises a total of 7 to 8 injections in the manner that after the transplantation of cancer cells 0.1 ml of the test sample per a day is administered for 2 to 4 days followed by the rest for one day. The survival rate was calculated on the basis of the date on which all of one control group is died (approximately 18 to 20 days). The survival rate (T/C, %) was calculated by the following equation as proposed in NIC's protocol: [formula]

CCCCCCCCCCCCC(OC(=O)CCC)C1=CC(=O)c2c(O)ccc(O)c2C1=O (centres unmarked) [2-(1-butanoyloxytridecyl)-5,8-dihydroxy-1,4-naphthoquinone]
IC50 [1]: 0.6 µg/mL (≈ 1.31 µM)
IC50 [2]: 2.7 µg/mL (≈ 5.89 µM)
IC50 [3]: > 20 µg/mL

CCCCCCCCCCCCOC(CCC(C)C)C1=CC(=O)c2c(O)ccc(O)c2C1=O (centres unmarked) [2-(1-dodecyloxy-4-methylpentyl)-5,8-dihydroxy-1,4-naphthoquinone]
IC50 [1]: > 20 µg/mL
IC50 [2]: > 20 µg/mL
IC50 [3]: > 20 µg/mL

CCCCCCCCCCCCOC(CCC(C)C)C1=CC(=O)c2c(OC)ccc(OC)c2C1=O (centres unmarked) [2-(1-dodecyloxy-4-methylpentyl)-5,8-dimethoxy-1,4-naphthoquinone]
IC50 [1]: 6.3 µg/mL (≈ 12.9 µM)
IC50 [2]: 3.7 µg/mL (≈ 7.6 µM)
IC50 [3]: 4.8 µg/mL (≈ 9.86 µM)

CCOC(CCC(C)C)C1=CC(=O)c2c(OC)ccc(OC)c2C1=O (centres unmarked) [2-(1-ethoxy-4-methylpentyl)-5,8-dimethoxy-1,4-naphthoquinone]
IC50 [1]: 0.01 µg/mL (≈ 0.0289 µM)
IC50 [2]: 1.5 µg/mL (≈ 4.33 µM)
IC50 [3]: 3 µg/mL (≈ 8.66 µM)

CCCCCCCOC(CCC(C)C)C1=CC(=O)c2c(O)ccc(O)c2C1=O (centres unmarked) [2-(1-heptyloxy-4-methylpentyl)-5,8-dihydroxy-1,4-naphthoquinone]
IC50 [1]: 0.8 µg/mL (≈ 2.06 µM)
IC50 [2]: 0.2 µg/mL (≈ 0.515 µM)
IC50 [3]: 2.4 µg/mL (≈ 6.18 µM)

CCCCCCCOC(CCC(C)C)C1=CC(=O)c2c(OC)ccc(OC)c2C1=O (centres unmarked) [2-(1-heptyloxy-4-methylpentyl)-5,8-dimethoxy-1,4-naphthoquinone]
IC50 [1]: 3.1 µg/mL (≈ 7.44 µM)
IC50 [2]: 6.4 µg/mL (≈ 15.4 µM)
IC50 [3]: 4.7 µg/mL (≈ 11.3 µM)

CCCCCCCCCC(OC(=O)CCCCC)C1=CC(=O)c2c(O)ccc(O)c2C1=O (centres unmarked) [2-(1-hexanoyloxydecyl)-5,8-dihydroxy-1,4-naphthoquinone]
IC50 [1]: 0.5 µg/mL (≈ 1.12 µM)
IC50 [2]: 1.1 µg/mL (≈ 2.47 µM)
IC50 [3]: 13 µg/mL (≈ 29.2 µM)

CCCCCCCCCCCCC(OC(=O)CCCCC)C1=CC(=O)c2c(O)ccc(O)c2C1=O (centres unmarked) [2-(1-hexanoyloxytridecyl)-5,8-dihydroxy-1,4-naphthoquinone]
IC50 [1]: 1.5 µg/mL (≈ 3.08 µM)
IC50 [2]: > 20 µg/mL
IC50 [3]: > 20 µg/mL

CCCCCCCCCC(O)C1=CC(=O)c2c(O)ccc(O)c2C1=O (centres unmarked) [2-(1-hydroxydecyl)-5,8-dihydroxy-1,4-naphthoquinone]
IC50 [1]: 0.1 µg/mL (≈ 0.289 µM)
IC50 [2]: 0.3 µg/mL (≈ 0.866 µM)
IC50 [3]: 0.5 µg/mL (≈ 1.44 µM)

CCCCCCCCCC(O)C1=CC(=O)c2c(OC)ccc(OC)c2C1=O (centres unmarked) [2-(1-hydroxydecyl)-5,8-dimethoxy-1,4-naphthoquinone]
IC50 [1]: 1.4 µg/mL (≈ 3.74 µM)
IC50 [2]: 1.6 µg/mL (≈ 4.27 µM)
IC50 [3]: 9.2 µg/mL (≈ 24.6 µM)

CCCCCC(O)C1=CC(=O)c2c(O)ccc(O)c2C1=O (centres unmarked) [2-(1-hydroxyhexyl)-5,8-dihydroxy-1,4-naphthoquinone]
IC50 [1]: 0.03 µg/mL (≈ 0.103 µM)
IC50 [2]: 0.02 µg/mL (≈ 0.0689 µM)
IC50 [3]: 1.1 µg/mL (≈ 3.79 µM)

CCCCCC(O)C1=CC(=O)c2c(OC)ccc(OC)c2C1=O (centres unmarked) [2-(1-hydroxyhexyl)-5,8-dimethoxy-1,4-naphthoquinone]
IC50 [1]: 0.3 µg/mL (≈ 0.942 µM)
IC50 [2]: 0.6 µg/mL (≈ 1.88 µM)
IC50 [3]: 0.9 µg/mL (≈ 2.83 µM)

CCCCCCCC(O)C1=CC(=O)c2c(O)ccc(O)c2C1=O (centres unmarked) [2-(1-hydroxyoctyl)-5,8-dihydroxy-1,4-naphthoquinone]
IC50 [1]: 0.07 µg/mL (≈ 0.22 µM)
IC50 [2]: 0.2 µg/mL (≈ 0.628 µM)
IC50 [3]: 0.4 µg/mL (≈ 1.26 µM)

CCCCCCCC(O)C1=CC(=O)c2c(OC)ccc(OC)c2C1=O (centres unmarked) [2-(1-hydroxyoctyl)-5,8-dimethoxy-1,4-naphthoquinone]
IC50 [1]: 1 µg/mL (≈ 2.89 µM)
IC50 [2]: 2.1 µg/mL (≈ 6.06 µM)
IC50 [3]: 7.5 µg/mL (≈ 21.6 µM)

CCCCC(O)C1=CC(=O)c2c(O)ccc(O)c2C1=O (centres unmarked) [2-(1-hydroxypentyl)-5,8-dihydroxy-1,4-naphthoquinone]
IC50 [1]: 0.04 µg/mL (≈ 0.145 µM)
IC50 [2]: 0.08 µg/mL (≈ 0.29 µM)
IC50 [3]: 0.5 µg/mL (≈ 1.81 µM)

CCCCC(O)C1=CC(=O)c2c(OC)ccc(OC)c2C1=O (centres unmarked) [2-(1-hydroxypentyl)-5,8-dimethoxy-1,4-naphthoquinone]
IC50 [1]: 0.1 µg/mL (≈ 0.329 µM)
IC50 [2]: 1.1 µg/mL (≈ 3.61 µM)
IC50 [3]: 6.4 µg/mL (≈ 21 µM)

CCCCCCCCCCCCC(O)C1=CC(=O)c2c(OC)ccc(OC)c2C1=O (centres unmarked) [2-(1-hydroxytridecyl)-5,8-dimethoxy-1,4-naphthoquinone]
IC50 [1]: 1.8 µg/mL (≈ 4.32 µM)
IC50 [2]: 2.3 µg/mL (≈ 5.52 µM)
IC50 [3]: 2.8 µg/mL (≈ 6.72 µM)

COc1ccc(OC)c2c1C(=O)C=C(C(CCC(C)C)OC)C2=O (centres unmarked) [2-(1-methoxy-4-methylpentyl)-5,8-dimethoxy-1,4-naphthoquinone]
IC50 [1]: 0.2 µg/mL (≈ 0.602 µM)
IC50 [2]: 2.1 µg/mL (≈ 6.32 µM)
IC50 [3]: 5.6 µg/mL (≈ 16.8 µM)

CCCCCCCCCC(OC(=O)CCCCCCC)C1=CC(=O)c2c(O)ccc(O)c2C1=O (centres unmarked) [2-(1-octanoyloxydecyl)-5,8-dihydroxy-1,4-naphthoquinone]
IC50 [1]: 0.9 µg/mL (≈ 1.9 µM)
IC50 [2]: > 20 µg/mL
IC50 [3]: > 20 µg/mL

COc1cccc2c1C(=O)c1c(O)c3c(c(O)c1C2=O)C[C@@](O)(C(=O)CO)C[C@@H]3O[C@H]1C[C@H](N)[C@H](O)[C@H](C)O1 [Doxorubicin, reference compound]
responders at 0.5 mg/kg/day ([4]; 1200 h, read-out: Number of mouse survived for 50 days (converted)): 44.4%
response vs control in vivo at 0.5 mg/kg/day ([4]; read-out: T/C): 230%
